From BindingDB's records for doi:10.1016/j.bmc.2004.08.050 (Yamanouchi Pharmaceutical, 2004)

Assays:
Experiment in all cases: HIV-1 RT Assay
[1] = target: T1, Gag-Pol polyprotein [588-1027,K690N]/[588-1147,K690N] (Human immunodeficiency virus 1, UniProt P04585, K690N)
T1 construct: 588-1027; 588-1147

[2] = target: T2, Gag-Pol polyprotein [588-1127,Y768C]/[588-1147,Y768C] (Human immunodeficiency virus 1, UniProt P04585, Y768C)
T2 construct: 588-1127; 588-1147

[3] = target: T3, Gag-Pol polyprotein [588-1027]/[588-1147] (Human immunodeficiency virus 1, UniProt P04585)
T3 construct: 588-1027; 588-1147

**Q.** How did the IC50 ([1]; pH 8.4, 37 °C) turn out when Cc1s/c(=N\S(=O)(=O)c2cccc([N+](=O)[O-])c2)n(C)c1C [3-nitro-N-[(2Z)-3,4,5-trimethyl-2,3-dihydro-1,3-thiazol-2-ylidene]benzene-1-sulfonamide] was run?
**A.** The IC50 was > 50 µM.

**Q.** And the IC50 ([2]; pH 8.4, 37 °C)?
**A.** The IC50 was 33 µM.

**Q.** And the IC50 ([3]; pH 8.4, 37 °C)?
**A.** The IC50 was 0.97 µM.

**Q.** Which IC50 ([1]; pH 8.4, 37 °C) does the source give for Cc1c(C(C)(C)C)s/c(=N\S(=O)(=O)c2cccc([N+](=O)[O-])c2)n1C [3-substituted thiazolidene deriv. 17a] here?
**A.** The IC50 was 13 µM.

**Q.** And the IC50 ([2]; pH 8.4, 37 °C)?
**A.** The IC50 was 0.066 µM.

**Q.** And the IC50 ([3]; pH 8.4, 37 °C)?
**A.** The IC50 was 0.27 µM.

**Q.** Which results are given for CC(C)c1s/c(=N\S(=O)(=O)c2cccc([N+](=O)[O-])c2)n(C)c1C(N)=O [5-Isopropyl-3-methyl-2-{[(3-nitrophenyl)sulfonyl]imino}-2,3-dihydro-1,3-thiazole-4-carboxamide]?
**A.** IC50 [1]: > 50 µM; IC50 [2]: > 25 µM; IC50 [3]: 39 µM

**Q.** COC(=O)c1c(C(C)C)s/c(=N\S(=O)(=O)c2cccc([N+](=O)[O-])c2)n1C [Methyl 5-isopropyl-3-methyl-2-{[(3-nitrophenyl)-sulfonyl]imino}-2,3-dihydro-1,3-thiazole-4-carboxylate] was tested. Which IC50 [1] did it give?
**A.** The IC50 was > 50 µM.

**Q.** What about the IC50 [2] of the same molecule?
**A.** Its IC50 is > 25 µM.

**Q.** What about the IC50 [3] of the same molecule?
**A.** The IC50 was > 50 µM.

**Q.** Cc1c(C(C)C)s/c(=N\S(=O)(=O)c2cccc([N+](=O)[O-])c2)n1C [N-(3,4-Dimethyl-5-isopropyl-1,3-thiazol-2(3H)-ylidene)-3-nitrobenzenesulfonamide] was tested. Which IC50 ([1]; pH 8.4, 37 °C) did it give?
**A.** Its IC50 is 20 µM.

**Q.** And the IC50 ([2]; pH 8.4, 37 °C)?
**A.** Its IC50 is 0.071 µM.

**Q.** What about the IC50 ([3]; pH 8.4, 37 °C) of the same molecule?
**A.** The IC50 was 0.34 µM.

**Q.** C=Cc1s/c(=N\S(=O)(=O)c2cccc([N+](=O)[O-])c2)n(C)c1C [N-(3,4-Dimethyl-5-vinyl-1,3-thiazol-2(3H)-ylidene)-3-nitrobenzenesulfonamide] was tested. Which IC50 [1] did it give?
**A.** The IC50 was 6.2 µM.

**Q.** What about the IC50 [2] of the same molecule?
**A.** Its IC50 is 9.6 µM.

**Q.** What about the IC50 [3] of the same molecule?
**A.** The IC50 was 0.15 µM.

**Q.** How did the IC50 [1] turn out when CC(C)c1s/c(=N\S(=O)(=O)c2cccc([N+](=O)[O-])c2)n(C)c1C#N [N-(4-Cyano-5-isopropyl-3-methyl-1,3-thiazol-2(3H)-ylidene)-3-nitrobenzenesulfonamide] was run?
**A.** Its IC50 is > 50 µM.

**Q.** What about the IC50 [2] of the same molecule?
**A.** Its IC50 is 0.64 µM.

**Q.** And the IC50 [3]?
**A.** The IC50 was 0.62 µM.

**Q.** What does the source list for CC(C)Cc1c(C(C)C)s/c(=N\S(=O)(=O)c2cccc([N+](=O)[O-])c2)n1C [N-(4-Isobutyl-5-isopropyl-3-methyl-1,3-thiazol-2(3H)-ylidene)-3-nitrobenzenesulfonamide]?
**A.** IC50 [1]: > 50 µM; IC50 [2]: > 25 µM; IC50 [3]: > 50 µM

**Q.** Which results are given for Cc1[nH]/c(=N/S(=O)(=O)c2cccc([N+](=O)[O-])c2)sc1C(C)(C)C [N-(5-tert-Butyl-4-methyl-1,3-thiazol-2-yl)-3-nitrobenzenesulfonamide]?
**A.** IC50 ([1]; pH 8.4, 37 °C): 32 µM; IC50 ([2]; pH 8.4, 37 °C): 0.47 µM; IC50 ([3]; pH 8.4, 37 °C): 0.37 µM

**Q.** What does the source list for Cc1cs/c(=N\S(=O)(=O)c2cccc([N+](=O)[O-])c2)n1C [N-[(2Z)-3,4-dimethyl-2,3-dihydro-1,3-thiazol-2-ylidene]-3-nitrobenzene-1-sulfonamide]?
**A.** IC50 ([1]; pH 8.4, 37 °C): > 50 µM; IC50 ([2]; pH 8.4, 37 °C): > 50 µM; IC50 ([3]; pH 8.4, 37 °C): > 50 µM

**Q.** Which IC50 [1] does the source give for CC(C)c1cn(C)/c(=N/S(=O)(=O)c2cccc([N+](=O)[O-])c2)s1 [N-[(2Z)-3-methyl-5-(propan-2-yl)-2,3-dihydro-1,3-thiazol-2-ylidene]-3-nitrobenzene-1-sulfonamide] here?
**A.** Its IC50 is > 50 µM.

**Q.** What about the IC50 [2] of the same molecule?
**A.** Its IC50 is 0.7 µM.

**Q.** What about the IC50 [3] of the same molecule?
**A.** The IC50 was 0.6 µM.

**Q.** What does the source list for CC(C)c1s/c(=N\S(=O)(=O)c2cccc([N+](=O)[O-])c2)n(C)c1C(F)(F)F [N-[(2Z)-3-methyl-5-(propan-2-yl)-4-(trifluoromethyl)-2,3-dihydro-1,3-thiazol-2-ylidene]-3-nitrobenzene-1-sulfonamide]?
**A.** IC50 [1]: 42 µM; IC50 [2]: 0.26 µM; IC50 [3]: 0.6 µM

**Q.** Which IC50 [1] does the source give for CC(=O)c1sc(=NS(=O)(=O)c2cccc([N+](=O)[O-])c2)n(C)c1C [N-[(2Z)-5-acetyl-3,4-dimethyl-2,3-dihydro-1,3-thiazol-2-ylidene]-3-nitrobenzene-1-sulfonamide] here?
**A.** The IC50 was > 50 µM.

**Q.** What about the IC50 [2] of the same molecule?
**A.** The IC50 was > 50 µM.

**Q.** What about the IC50 [3] of the same molecule?
**A.** The IC50 was > 50 µM.

**Q.** For CCc1s/c(=N\S(=O)(=O)c2cccc([N+](=O)[O-])c2)n(C)c1C [N-[(2Z)-5-ethyl-3,4-dimethyl-2,3-dihydro-1,3-thiazol-2-ylidene]-3-nitrobenzene-1-sulfonamide], which IC50 ([1]; pH 8.4, 37 °C) is on record?
**A.** Its IC50 is 6.3 µM.

**Q.** What about the IC50 ([2]; pH 8.4, 37 °C) of the same molecule?
**A.** Its IC50 is 0.47 µM.

**Q.** And the IC50 ([3]; pH 8.4, 37 °C)?
**A.** The IC50 was 0.85 µM.

**Q.** Which results are given for CCn1c(C)c(C(C)(C)C)s/c1=N\S(=O)(=O)c1cccc([N+](=O)[O-])c1 [N-[(2Z)-5-tert-butyl-3-ethyl-4-methyl-2,3-dihydro-1,3-thiazol-2-ylidene]-3-nitrobenzene-1-sulfonamide]?
**A.** IC50 [1]: > 50 µM; IC50 [2]: 0.12 µM; IC50 [3]: 6 µM

**Q.** How did the IC50 [1] turn out when CC(C)c1s/c(=N\S(=O)(=O)c2cccc([N+](=O)[O-])c2)n(C)c1Cl [thiazolidenebenzenesulfonamide deriv. 17k] was run?
**A.** Its IC50 is 6.9 µM.

**Q.** What about the IC50 [2] of the same molecule?
**A.** The IC50 was 0.13 µM.

**Q.** What about the IC50 [3] of the same molecule?
**A.** The IC50 was 0.077 µM.
